Experimental data taken from ChEMBL document CHEMBL1909046, “DrugMatrix in vitro pharmacology data”.

Legend:
[1] = target: T1, Amine oxidase [flavin-containing] A (Homo sapiens, UniProt P21397); experiment: DRUGMATRIX: Monoamine Oxidase MAO-A enzyme inhibition (substrate: Kynuramine); design: species or system BTI-TN-5B1-4; details: Not Active = under 50% inhibition at 10 µM
T1 sequence (P21397 whole entry): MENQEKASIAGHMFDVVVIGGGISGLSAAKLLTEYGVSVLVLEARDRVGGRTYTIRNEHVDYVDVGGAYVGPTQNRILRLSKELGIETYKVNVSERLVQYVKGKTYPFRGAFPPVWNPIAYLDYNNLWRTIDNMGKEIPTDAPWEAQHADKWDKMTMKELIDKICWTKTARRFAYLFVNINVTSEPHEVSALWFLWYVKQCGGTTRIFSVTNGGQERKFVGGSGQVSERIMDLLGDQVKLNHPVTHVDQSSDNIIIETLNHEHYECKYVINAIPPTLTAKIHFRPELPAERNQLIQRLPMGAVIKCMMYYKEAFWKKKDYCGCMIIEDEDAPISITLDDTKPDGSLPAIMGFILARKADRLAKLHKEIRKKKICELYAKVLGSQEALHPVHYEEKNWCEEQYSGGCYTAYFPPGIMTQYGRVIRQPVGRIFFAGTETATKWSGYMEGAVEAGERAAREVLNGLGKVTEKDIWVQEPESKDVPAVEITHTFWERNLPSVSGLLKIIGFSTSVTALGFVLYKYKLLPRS

[2] = DRUGMATRIX: Phorbol Ester radioligand binding (ligand: [3H] PDBu); type: cell membranes, Mus musculus, ICR, Brain, Membrane; details: Not Active = under 50% inhibition at 10 µM
Cytochrome P450 2D6 = Cytochrome P450 2D6 (Homo sapiens, UniProt P10635); note: in other assays of this panel Not Active means under 50% inhibition at 10 µM
Androgen receptor [3] = target: T2, Androgen receptor (Rattus norvegicus, UniProt P15207); note: in other assays of this panel Not Active means under 50% inhibition at 10 µM
T2 sequence (P15207 whole entry): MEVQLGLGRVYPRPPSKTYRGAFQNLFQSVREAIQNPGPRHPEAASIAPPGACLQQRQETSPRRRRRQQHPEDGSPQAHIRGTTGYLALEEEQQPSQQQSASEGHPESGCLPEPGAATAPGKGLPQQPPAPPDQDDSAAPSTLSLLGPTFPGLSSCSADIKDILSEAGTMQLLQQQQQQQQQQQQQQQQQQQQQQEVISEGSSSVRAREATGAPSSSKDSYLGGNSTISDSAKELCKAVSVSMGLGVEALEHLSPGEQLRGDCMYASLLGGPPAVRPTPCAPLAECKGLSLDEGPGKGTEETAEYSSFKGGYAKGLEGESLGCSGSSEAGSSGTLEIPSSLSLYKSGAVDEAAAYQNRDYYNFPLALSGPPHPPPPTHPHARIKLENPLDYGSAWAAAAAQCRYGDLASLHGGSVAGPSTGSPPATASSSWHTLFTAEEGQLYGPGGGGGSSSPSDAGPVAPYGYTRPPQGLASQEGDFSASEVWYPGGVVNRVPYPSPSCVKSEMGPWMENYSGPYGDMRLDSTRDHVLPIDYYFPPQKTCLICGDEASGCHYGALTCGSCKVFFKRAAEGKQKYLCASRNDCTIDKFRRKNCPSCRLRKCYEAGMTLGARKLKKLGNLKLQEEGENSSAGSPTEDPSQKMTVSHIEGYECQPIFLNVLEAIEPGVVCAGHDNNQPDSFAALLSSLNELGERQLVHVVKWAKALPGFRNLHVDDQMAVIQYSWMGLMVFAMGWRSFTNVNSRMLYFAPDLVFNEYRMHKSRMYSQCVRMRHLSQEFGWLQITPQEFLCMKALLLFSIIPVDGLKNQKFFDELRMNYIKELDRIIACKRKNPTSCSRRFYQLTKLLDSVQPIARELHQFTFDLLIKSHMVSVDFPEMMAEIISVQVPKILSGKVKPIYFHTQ

Androgen receptor [4] = target: T2, Androgen receptor; remark: listed apart in the source
Cytochrome P450 1A2 = target: T3, Cytochrome P450 1A2 (Homo sapiens, UniProt P05177); note: in other assays of this panel Not Active means under 50% inhibition at 10 µM
T3 sequence (P05177 whole entry): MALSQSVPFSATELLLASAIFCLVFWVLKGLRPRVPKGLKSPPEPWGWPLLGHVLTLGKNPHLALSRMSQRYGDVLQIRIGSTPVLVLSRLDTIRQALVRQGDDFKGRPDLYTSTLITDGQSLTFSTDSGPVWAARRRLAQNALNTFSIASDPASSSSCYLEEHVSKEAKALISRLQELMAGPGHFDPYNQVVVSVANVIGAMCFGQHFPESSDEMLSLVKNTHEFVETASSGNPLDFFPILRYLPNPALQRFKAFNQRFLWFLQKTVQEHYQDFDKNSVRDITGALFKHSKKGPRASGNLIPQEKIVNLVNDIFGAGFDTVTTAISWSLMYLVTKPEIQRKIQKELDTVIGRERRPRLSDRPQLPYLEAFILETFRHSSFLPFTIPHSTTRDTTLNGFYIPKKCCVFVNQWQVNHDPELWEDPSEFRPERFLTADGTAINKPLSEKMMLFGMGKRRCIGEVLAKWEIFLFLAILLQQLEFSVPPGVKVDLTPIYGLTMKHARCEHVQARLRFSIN

Cytochrome P450 2C19 = Cytochrome P450 2C19 (Homo sapiens, UniProt P33261); note: in other assays of this panel Not Active means under 50% inhibition at 10 µM
Cytochrome P450 2C9 = Cytochrome P450 2C9 (Homo sapiens, UniProt P11712); note: in other assays of this panel Not Active means under 50% inhibition at 10 µM
Sequence of Cytochrome P450 2C9 (P11712 whole entry): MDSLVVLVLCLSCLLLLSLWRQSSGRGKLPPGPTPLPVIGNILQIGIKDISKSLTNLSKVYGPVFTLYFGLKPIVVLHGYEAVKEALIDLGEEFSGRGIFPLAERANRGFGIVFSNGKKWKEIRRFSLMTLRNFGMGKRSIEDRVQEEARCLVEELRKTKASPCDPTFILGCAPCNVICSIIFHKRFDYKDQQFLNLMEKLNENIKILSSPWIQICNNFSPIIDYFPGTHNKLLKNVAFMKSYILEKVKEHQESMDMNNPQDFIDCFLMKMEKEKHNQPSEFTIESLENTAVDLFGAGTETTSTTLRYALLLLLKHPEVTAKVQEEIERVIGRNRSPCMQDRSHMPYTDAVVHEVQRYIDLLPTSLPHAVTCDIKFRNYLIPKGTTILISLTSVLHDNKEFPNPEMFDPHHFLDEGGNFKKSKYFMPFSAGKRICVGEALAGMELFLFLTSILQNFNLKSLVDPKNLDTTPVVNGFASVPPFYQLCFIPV

Sequence of Cytochrome P450 2D6 (P10635 whole entry): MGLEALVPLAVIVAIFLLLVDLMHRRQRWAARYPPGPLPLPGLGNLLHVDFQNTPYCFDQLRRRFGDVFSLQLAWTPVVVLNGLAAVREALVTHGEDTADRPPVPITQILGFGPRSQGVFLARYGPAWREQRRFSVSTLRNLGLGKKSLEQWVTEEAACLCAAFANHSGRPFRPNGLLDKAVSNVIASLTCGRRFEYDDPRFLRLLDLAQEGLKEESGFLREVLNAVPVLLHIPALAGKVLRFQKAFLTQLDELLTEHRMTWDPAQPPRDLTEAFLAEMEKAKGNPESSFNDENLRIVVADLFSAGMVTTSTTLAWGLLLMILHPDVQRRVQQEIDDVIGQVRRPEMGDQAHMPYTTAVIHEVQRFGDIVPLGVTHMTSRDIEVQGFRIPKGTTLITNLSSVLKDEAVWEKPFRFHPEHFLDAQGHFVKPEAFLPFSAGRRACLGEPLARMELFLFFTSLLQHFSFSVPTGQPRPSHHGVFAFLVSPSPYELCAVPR
Sequence of Cytochrome P450 2C19 (P33261 whole entry): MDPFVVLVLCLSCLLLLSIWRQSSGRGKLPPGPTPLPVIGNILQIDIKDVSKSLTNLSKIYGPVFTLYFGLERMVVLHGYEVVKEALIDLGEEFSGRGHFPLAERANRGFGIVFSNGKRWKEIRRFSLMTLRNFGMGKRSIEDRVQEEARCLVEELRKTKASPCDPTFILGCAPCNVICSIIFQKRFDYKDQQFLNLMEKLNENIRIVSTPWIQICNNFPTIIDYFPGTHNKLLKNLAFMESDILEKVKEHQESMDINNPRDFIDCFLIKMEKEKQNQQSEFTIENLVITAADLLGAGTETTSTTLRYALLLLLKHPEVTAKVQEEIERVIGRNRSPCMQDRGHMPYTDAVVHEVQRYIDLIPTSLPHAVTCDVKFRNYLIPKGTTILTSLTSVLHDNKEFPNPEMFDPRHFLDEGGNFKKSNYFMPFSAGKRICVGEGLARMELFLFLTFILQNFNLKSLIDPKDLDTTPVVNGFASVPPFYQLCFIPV

Molecule	IC50 ([1]; bti-tn-5b1-4)	IC50 [2]	Ki [2]	IC50 (Cytochrome P450 2D6) [nM]	IC50 (Androgen receptor [3])	IC50 (Androgen receptor [4]) [nM]	Ki (Androgen receptor [4]) [nM]	IC50 ([1]; read-out: IC50) [nM]	IC50 (Cytochrome P450 1A2) [nM]	IC50 (Cytochrome P450 2C19) [nM]	IC50 (Cytochrome P450 2C9) [nM]	Ki ([1]; bti-tn-5b1-4)	Ki (Androgen receptor [3])
CCCCCCNC(=O)n1cc(F)c(=O)[nH]c1=O [CARMOFUR]	Not Active	Not Active	Not Active	5000	–	–	–	–	–	–	–	–	–
Cc1cc(C(C)(C)C)c(O)c(C)c1CC1=NCCN1 [OXYMETAZOLINE]	Not Active	Not Active	Not Active	200	Not Active	–	–	–	–	–	–	–	–
CC(C)(c1ccc(O)cc1)c1ccc(O)cc1 [BISPHENOL A]	Not Active	Not Active	Not Active	–	–	33800	22500	–	–	–	–	–	–
c1ccc2c(c1)Nc1ccccc1S2 [PHENOTHIAZINE]	–	Not Active	Not Active	–	–	–	–	592	16	–	–	–	–
c1ccc(Cn2ccnc2)cc1	Not Active	Not Active	Not Active	2000	Not Active	–	–	–	200	–	–	–	–
COc1cc([C@@H]2c3cc4c(cc3[C@H](O)[C@H]3COC(=O)[C@H]23)OCO4)cc(OC)c1OC [PODOFILOX]	Not Active	Not Active	Not Active	–	Not Active	–	–	–	–	5000	4000	–	–
CN(Cc1cc(Br)cc(Br)c1N)C1CCCCC1 [BROMHEXINE]	Not Active	Not Active	Not Active	196	–	–	–	–	–	–	–	–	–
CC(=O)Nc1ccc2c(c1)Cc1ccccc1-2 [2-ACETYLAMINOFLUORENE]	–	Not Active	Not Active	–	–	–	–	59	16	–	–	–	–
C[C@H](C(=O)O)c1ccc2oc(-c3ccc(F)cc3)nc2c1 [FLUNOXAPROFEN]	Not Active	Not Active	Not Active	–	Not Active	–	–	–	–	–	–	–	–
CN(CCOc1ccc(C[C@H](Nc2ccccc2C(=O)c2ccccc2)C(=O)O)cc1)c1ccccn1	Not Active	Not Active	Not Active	–	Not Active	–	–	–	–	–	4000	–	–
CCN1CCN(c2cc3c(cc2F)c(=O)c(C(=O)O)cn3C2CC2)CC1 [ENROFLOXACIN]	Not Active	Not Active	Not Active	–	Not Active	–	–	–	–	–	–	–	–
C[N+](C)(C)CCOP(=O)([O-])OC[C@H](O)CO	Not Active	Not Active	Not Active	–	Not Active	–	–	–	–	–	–	–	–
O=C(O)COC(=O)Cc1ccccc1Nc1c(Cl)cccc1Cl [ACECLOFENAC]	Not Active	Not Active	Not Active	–	Not Active	–	–	–	–	–	–	–	–
O=c1[nH]c2ccccc2c2ccccc12	Not Active	Not Active	Not Active	–	Not Active	–	–	–	16	–	–	–	–
C=CCN1CC[C@]23c4c5ccc(O)c4O[C@H]2/C(=N/N=C2\CC[C@@]4(O)[C@H]6Cc7ccc(O)c8c7[C@@]4(CCN6CC=C)[C@H]2O8)CC[C@@]3(O)[C@H]1C5 [NALOXONAZINE]	Not Active	Not Active	Not Active	–	Not Active	–	–	–	–	–	–	–	–
COPPER(II) OXIDE	Not Active	Not Active	Not Active	–	Not Active	–	–	–	–	–	–	Not Active	Not Active
CCO [ALCOHOL]	Not Active	Not Active	Not Active	–	Not Active	–	–	–	–	–	–	–	–
CC(N)Cc1c[nH]c2ccc(OCc3cccs3)cc12 (configuration not stated) [BW-723C86]	Not Active	Not Active	Not Active	2770	Not Active	–	–	–	874	–	–	–	–
C[N+](C)(C)CCOC(N)=O.[Cl-] [CARBACHOL]	Not Active	Not Active	Not Active	–	Not Active	–	–	–	–	–	–	–	–
O=C(O)CNCP(=O)(O)O [GLYPHOSATE]	Not Active	Not Active	Not Active	–	Not Active	–	–	–	–	–	–	–	–
CARBOXYMETHYLCELLULOSE	Not Active	Not Active	Not Active	–	Not Active	–	–	–	–	–	–	Not Active	Not Active
COc1ccccc1OCCNCC(O)COc1cccc2[nH]c3ccccc3c12 (configuration not stated) [CARVEDILOL]	Not Active	Not Active	Not Active	–	Not Active	–	–	–	–	–	–	–	–
